{
  "source": "patent US9303069B2",
  "about": "“Peptides for treating cancer” (University of Mississippi Medical Center, priority 2014, dated 2016)",
  "key": {"SKOV3 cells": {"tested_on": "SKOV3 cells", "type": "cell-based, human", "settings": "then cisplatin 24 hours, read-out: IC50 of cisplatin (survival)", "method": "Thus, a peptide (hereafter IRIS peptide) composed of a cell/nucleus penetrating signal (FIG. 26) fused to BRCA1-IRIS intron 11 (FIG. 26) was synthesized. Equal numbers of HOSE, HOSE/IRIS, SKOV3, OVCAR3, OVCAR420 and OV-90 cells were grown in the presence of increasing concentrations of IRIS peptide for 48 hours.\nTo investigate the contribution of ErbB2 and TrkB to BRCA1-IRIS-induced cisplatin resistance, equal numbers of SKOV3 cells were either depleted from BRCA1-IRIS, ErbB2 or TrkB using specific siRNAs for 48 hours before they were (i) exposed to increasing concentrations of cisplatin for another 24 hours or (ii) exposed to IRIS peptide, ErbB2 inhibitor (CP-724714), TrkB inhibitor (K252a) or both for 24 hours, before they were exposed to increasing concentrations of cisplatin for another 24 hours.\nCell viability measurement. Cell viability under different experimental conditions was determined using the MTS assay […]. Briefly, SKOV3, OVACAR3, HOSE and HOSE/IRIS cells (2.5×10^4 cells per well) were seeded in 96 well plates and incubated overnight at 37° C. in 10% humidified CO2 atmosphere in varying concentrations of IRIS peptide, or inhibitors of ErbB2 (CP-724714), EGFR (Erlotinib), TrkB (K252a), JNK (SP600125), p38 (SB203580), ERK (PD98059) and PI3′K/AKT (LY294002) inhibitors for 24 hours at 37° C. Cell Titer 96® Aqueous (Promega, Madison, Wis., USA) was used to measure viability following manufactures instructions. Cell viability (%) was expressed as a ratio to control cells×100. Growth inhibition was also determined by manually counting cells in five different microscopic fields. Change in cell numbers (fold) was expressed as a ratio to control cells×100. All experiments were done in at least triplicates, three different times. * is p≦0.05, ** is p≦0.001 and *** is p≦0.0001.\nTransfections of siRNA. siRNAs for human ErbB2 and TrkB were purchased from Ambion and Santa Cruz Biotechnology, USA. Custom synthesized siRNA against BRCA1 IRIS was used. siRNA against luciferase gene was used as the negative control. Sub-confluent cells were transfected in 6- or 96-well plates with ErbB2 (100 nM), TrkB (100 nM), BRCA1 IRIS (200 nM) or control siRNA using Oligofectamine™ reagent (GibcoBRL Inc, USA) following the instructions of the manufacturer. Protein expression was tested by Western blot after 72 hours of siRNA transfection. Cell viability was evaluated by MTS or by manual counting after 72 hours of siRNA exposure alone or in combination with cisplatin exposure (for an additional 24 hours)."}, "BRCA1-IRIS": {"tested_on": "BRCA1-IRIS", "test": "BRCA1-IRIS expression in ovarian cells (Western analysis)", "type": "cell-based, human", "settings": "10, 20 or 30 μM of cisplatin for 24 hours", "description": "At these low concentrations of cisplatin BRCA1-IRIS expression was induced in HOSE cells and remained high in HOSE/IRIS cells (FIG. 17). […] Cell lines expressing the lowest levels of BRCA1-IRIS (i.e."}, "[1]": {"tested_on": "BRCA1-IRIS, TrkB, ErbB2, AKT, p-AKT, p-FOXO, Cyclin D1, Bcl-2 and survivin", "test": "Expression of growth and survival proteins in HOSE and HOSE/IRIS cells (Western)", "type": "cell-based, human", "settings": "IRIS peptide 5 μM, cisplatin 10 μM, combination 2.5 μM IRIS peptide + 5 μM cisplatin", "description": "HOSE cells overexpressing IRIS show a higher degree of resistance to cisplatin than HOSE cells (compare blue to black line in FIG. 30)."}, "SKOV3 tumors": {"tested_on": "SKOV3 tumors", "test": "In vivo efficacy on established SKOV3 tumors", "design": "species or system mice", "settings": "day 16; cisplatin 5 mg/kg i.p., IRIS peptide 10 mg/kg i.t., every third day, four times", "method": "Further, to determine whether IRIS peptide could have any efficacy in vivo and/or whether it sensitizes ovarian tumors to low, clinically relevant concentrations of cisplatin, four sets of nude mice (n=6 each) were subcutaneously injected with SKOV3 cells. Ten days later, when tumors were ˜250 mm^3 in volume, one group was treated with controls (i.e. DMSO delivered i.p. and scrambled peptide delivered directly into the tumors, i.t.), a second group was treated with cisplatin (5 mg/kg, delivered i.p.), a third group was treated with IRIS peptide (10 mg/kg, injected i.t.), and a fourth group was treated with both. Treatments were delivered every third day for a total of four times. For the next 16 days, tumors were measured daily with a caliper. Mice were then sacrificed, and their tumors or their remnants were taken.\nEfficacy of BRCA1-IRIS inhibitory peptide, in vivo. Six to eight week old female athymic SCID mice were injected subcutaneously with 2.5×10^6 SKOV3 cells in the flank region. Their respective tumor growth was measured with a caliper. When the tumor volume reached 250 mm^3, mice were randomly grouped into four groups. One group (control) was treated with scrambled peptide (10 mg/kg) and DMSO. A second was treated with BRCA1-IRIS inhibitory peptide (10 mg/kg, body weight). […] Change in tumor volume was measured to monitor the efficacy of the treatment. […]"}, "BRCA1-IRIS and survivin": {"tested_on": "BRCA1-IRIS and survivin", "test": "IHC of SKOV3 tumors for BRCA1-IRIS and survivin", "type": "in vivo, mice", "settings": "SKOV3 tumors after treatment", "description": "Isolated tumors were mounted, sectioned and IHC stained for BRCA1-IRIS and survivin. […] It is possible that SKOV3 contain a heterogeneous population of cells that differ in their BRCA1-IRIS expression and thus that the remaining tumors are from those expressing no or low BRCA1-IRIS.\nImmunohistochemistry (IHC). Ovarian tissue microarrays comprised of normal, cancer and metastatic tissues were purchased from US Biomax, Inc. Paraffin-embedded tissue sections were de-waxed in xylene and rehydrated in alcohol. Antigen-retrieval for FOXO3a and survivin was performed by heating the slides in citrate buffer (10 μM, pH 6.0) using microwave for 10 minutes. Slides were then cooled to room temperature (RT) and washed with water followed by PBS for 15 minutes each. Antigen-retrieval for BRCA1-IRIS was performed by incubating the slides in pepsin (10 μM) for 20 minutes at 37° C. Endogenous peroxidase activity was suppressed by treating the slides with 3% hydrogen peroxide for 10 minutes. After washing steps slides were incubated for 1 hour at room temperature with antibodies to human FOXO3a (Cell Signaling Technology, USA 1:400) and survivin (Cell Signaling Technology, USA 1:400). For BRCA1-IRIS staining, slides were incubated overnight at 4° C. with monoclonal BRCA1-IRIS antibody at a 1:75 dilution. […]"}},
  "note": "Read-outs that look alike come from different tables or passages of the source.",
  "data": [
    {"smiles": "N.N.[Cl][Pt][Cl]", "note": "[cisplatin]", "values": [
      {"measurement": "IC50", "setting": "SKOV3 cells; SKOV3, BRCA1-IRIS silencing (siRNA) 48 hours", "value": "~2.5", "unit": "µM"},
      {"measurement": "IC50", "setting": "SKOV3 cells; SKOV3, ErbB2 inhibitor (CP-724714) 24 hours", "value": "~30", "unit": "µM"},
      {"measurement": "IC50", "setting": "SKOV3 cells; SKOV3, IRIS peptide 24 hours", "value": "~7.5", "unit": "µM"},
      {"measurement": "IC50", "setting": "SKOV3 cells; SKOV3, TrkB inhibitor (K252a) 24 hours", "value": "~50", "unit": "µM"},
      {"measurement": "IC50", "setting": "SKOV3 cells; SKOV3, siErbB2 transfected 48 hours", "value": "~7.5", "unit": "µM"},
      {"measurement": "IC50", "setting": "SKOV3 cells; SKOV3, siLuc transfected 48 hours", "value": "> 50", "unit": "µM"},
      {"measurement": "IC50", "setting": "SKOV3 cells; SKOV3, siTrkB transfected 48 hours", "value": "~20", "unit": "µM"},
      {"measurement": "IC50", "setting": "SKOV3 cells; SKOV3, vehicle treated 24 hours", "value": "> 50", "unit": "µM"},
      {"measurement": "BRCA1-IRIS expression in HOSE cells", "setting": "BRCA1-IRIS", "value": "induced"},
      {"measurement": "expression of BRCA1-IRIS, TrkB, ErbB2, AKT, p-AKT, p-FOXO, Cyclin D1, Bcl-2 and survivin", "setting": "[1]", "value": "increased expression"},
      {"measurement": "reduction in tumor size", "setting": "SKOV3 tumors", "value": "~40", "unit": "%"},
      {"measurement": "BRCA1-IRIS and survivin staining of remaining tumor", "setting": "BRCA1-IRIS and survivin", "value": "increased IRIS and survivin expression"}
    ]}
  ]
}
